“And” between values parts separate entries of the source, which are not always exact repeats. Equal values may be shown once.
Tested on: 777334-354-R2-J4-PDC tumor spheroids with HUVEC/MSC, viability
Test: Anticancer human tumor 777334-354-R2-J4-PDC patient-derived pancreatic adenocarcinoma cell line growth inhibition [GQUAD]
Settings: for viability, T/C: stronger effect = lower value; active = viability on the fitted dose curve at most 10% of control; inactive = the rest
Source text: DNA G-quadruplex Stabilizer Agents in Combinations in Complex Spheroids
A high-throughput screen of multi-cell type tumor spheroids was designed to identify active combinations of DNA G-quadruplex stabilizer agents and targeted small molecules. Complex spheroids include a stromal component modeled by human endothelial cells (HUVEC) and fibroblasts modeled by human mesenchymal stem cells (MSCs). The concentration ranges selected for each drug and investigational agent were based upon clinically achievable concentrations if the clinical Cmax of the agent was known.
Compounds. The drugs and investigational agents: pidnarulex (CX-5461; NSC782164), APTO-253 (NSC789042), BRACO-19 (NSC847499), peposertib (NSC802822), ceralasertib (NSC780249), elimusertib (NSC800525), camonsertib (NSC841442), AZD-1390 (NSC803789), olaparib (NSC753686), talazoparib (NSC767125), ART-558 (NSC835418), sotorasib (NSC818433), MRTX-1133 (NSC836407), SN-38 (NSC673596), topotecan (NSC609699), etoposide (NSC141540), doxorubicin (NSC123127), gemcitabine (NSC613327), 5-fluorouracil (NSC19893), paclitaxel (NSC125973), vemurafenib (NSC761431), panobinostat (NSC761190), R-306465 (JNJ-16241199; NSC773264), adavosertib (NSC754352), TP-3654 (NSC805149), carboplatin (NSC241240), KSQ-4279 (NSC840948), and staurosporine (NSC755774) were obtained from the National Cancer Institute (NCI) Developmental Therapeutics Program Chemical Repository (34). The FDA-approved anticancer drug set is available from the NCI Developmental Therapeutics Program. […] The stock solutions were prepared in dimethyl sulfoxide (DMSO, Sigma-Aldrich, St. Louis, MO, cat. D2650) at 800-fold the tested concentration and stored at -70 degrees C prior to their use. All drugs and investigational agents were tested over a range starting from a high concentration at or near the clinical Cmax and decreasing in half-log increments. If the clinical Cmax for an agent had not been determined, the highest concentration tested was 10 microM.
2.3 Cell Culture. All cells were maintained in an incubator at 37 degrees C and 5% CO2 with 95% humidity. The PDC lines were cultured according to standard operating procedures established by the NCI PDMR. All PDCs were thawed and cultured in Matrigel-coated flasks prepared with a working solution of 1X Ham's F-12 nutrient mix, without supplementation (Invitrogen, cat. 11765054), 100 U/mL penicillin-streptomycin (Invitrogen, cat. 15140122), and 2.5% Matrigel (Corning Inc., cat. 354248) for the first three passages. The 857933-349-R-J2-PDC line was cultured in 6C/Colon 1B media, which includes advanced DMEM/F-12 (Thermo Fisher Scientific, cat. 12634028), 10 mM HEPES (Thermo Fisher Scientific, cat. 15630080), 1X GlutaMAX supplement (Thermo Fisher Scientific, cat. 35050061), 0.1 mg/mL primocin (InvivoGen, cat. ant-pm-2), 10% defined fetal bovine serum, heat inactivated (HyClone Laboratories Inc., cat. SH30070.03HI), 50% L-WRN conditioned media (ATCC, cat. CRL-3276), 1.25 mM N-Acetyl-L-cysteine (Sigma-Aldrich, cat. A9165), 10 mM nicotinamide (Sigma-Aldrich, cat. N0636), 1X B-27 supplement (Thermo Fisher Scientific, cat. 17504044), 1X N-2 supplement (Thermo Fisher Scientific, cat. 17502048), 10 microM Y-27632 dihydrochloride (Tocris Bioscience, cat. 1254), and 50 ng/mL human EGF recombinant protein (Thermo Fisher Scientific, cat. PHG0311). The 485176-168-R4-J1-PDC line was cultured in Panc media, which includes all 6C/Colon 1B media components plus 100 ng/mL human FGF-10 (Thermo Fisher Scientific, cat. 100-26), 500 nM SB-431542 (Selleckchem, cat. S1067), and gastrin (Tocris, cat. 3006).
[…]
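Note: spheroids exposed to compounds for 7 days before readout.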

C#Cc1c(F)ccc2cc(O)cc(-c3ncc4c(N5CC6CCC(C5)N6)nc(OCC56CCCN5CC(F)C6)nc4c3F)c12 (centres undefined)
inactive: viability, T/C (compound 0.0316 µM) 45.7% and 46.4% and 48.8% | viability, T/C (compound 0.1 µM) 38.8% and 41.4% and 41.3% | viability, T/C (compound 0.316 µM) 35.2% and 32.8% and 38.1% | viability, T/C (compound 1 µM) 30.4% and 28.5% and 34% | viability, T/C (compound 3.16 µM) 26.4% and 36.1% and 29.3% | viability, T/C (compound 10 µM) 20.9% and 19.6% and 22.6%
< 0.0316 µM: IC50 (curve of compound)

CC1COCCN1c1cc(C2(S(C)(=N)=O)CC2)nc(-c2ccnc3[nH]ccc23)n1 (centres undefined) + Cc1[nH]c2ccc(F)cc2c1-c1nc2c3cccnc3c3ncccc3c2[nH]1
> 10 µM: IC50 (curve of first compound, second compound 0.0316 µM) | IC50 (curve of first compound, second compound 0.1 µM) | IC50 (curve of first compound, second compound 0.316 µM)
< 0.0316 µM: IC50 (curve of first compound, second compound 3.16 µM) | IC50 (curve of first compound, second compound 10 µM)
7.07 µM: IC50 (curve of first compound, second compound 1 µM)
inactive: viability, T/C (second compound 0.0316 µM, first compound 0.0316 µM) 109% | viability, T/C (second compound 0.0316 µM, first compound 0.1 µM) 98.9% | viability, T/C (second compound 0.0316 µM, first compound 0.316 µM) 108% | viability, T/C (second compound 0.0316 µM, first compound 1 µM) 100% | viability, T/C (second compound 0.0316 µM, first compound 3.16 µM) 87.7% | viability, T/C (second compound 0.0316 µM, first compound 10 µM) 62.2% | viability, T/C (second compound 0.1 µM, first compound 0.0316 µM) 113% | viability, T/C (second compound 0.1 µM, first compound 0.1 µM) 92.7% | viability, T/C (second compound 0.1 µM, first compound 0.316 µM) 118% | viability, T/C (second compound 0.1 µM, first compound 1 µM) 85.8% | viability, T/C (second compound 0.1 µM, first compound 3.16 µM) 94.5% | viability, T/C (second compound 0.1 µM, first compound 10 µM) 74.8% | viability, T/C (second compound 0.316 µM, first compound 0.0316 µM) 94.8% | viability, T/C (second compound 0.316 µM, first compound 0.1 µM) 97.7% | viability, T/C (second compound 0.316 µM, first compound 0.316 µM) 88.3% | viability, T/C (second compound 0.316 µM, first compound 1 µM) 96.2% | viability, T/C (second compound 0.316 µM, first compound 3.16 µM) 89.9% | viability, T/C (second compound 0.316 µM, first compound 10 µM) 56% | viability, T/C (second compound 1 µM, first compound 0.0316 µM) 88.7% | viability, T/C (second compound 1 µM, first compound 0.1 µM) 93.8% | viability, T/C (second compound 1 µM, first compound 0.316 µM) 87.1% | viability, T/C (second compound 1 µM, first compound 1 µM) 75.5% | viability, T/C (second compound 1 µM, first compound 3.16 µM) 67.9% | viability, T/C (second compound 1 µM, first compound 10 µM) 42.7% | viability, T/C (second compound 3.16 µM, first compound 0.0316 µM) 41.8% | viability, T/C (second compound 3.16 µM, first compound 0.1 µM) 27.1% | viability, T/C (second compound 3.16 µM, first compound 0.316 µM) 35% | viability, T/C (second compound 3.16 µM, first compound 1 µM) 22.8% | viability, T/C (second compound 3.16 µM, first compound 3.16 µM) 25.8% | viability, T/C (second compound 3.16 µM, first compound 10 µM) 12% | viability, T/C (second compound 10 µM, first compound 0.0316 µM) 36% | viability, T/C (second compound 10 µM, first compound 0.1 µM) 29.2% | viability, T/C (second compound 10 µM, first compound 0.316 µM) 29.6% | viability, T/C (second compound 10 µM, first compound 1 µM) 18.9% | viability, T/C (second compound 10 µM, first compound 3.16 µM) 20.7% | viability, T/C (second compound 10 µM, first compound 10 µM) 11.1%

From PubChem BioAssay AID2060499 (Molecular Pharmacology Branch, DTP, NCI, 2025)
